Details: maltodextrin-coated vitamin tablet sealed approximately one week with sorbent pad loaded with approximately 200 mg 2-butanol; ingested; breath at approximately 10 minutes after ingestion
Experimental: Referring to FIG. 3, a vitamin tablet was dipped into a maltodextrin/water solution and the tablet was allowed to dry. A tiny sorbent pad loaded with approximately 200 mg of 2-butanol was added to the bottom of a tiny plastic vial to simulate a blister cavity. The dry coated tablet was then added to the vial and sealed via a screw top. After approximately one week, the vial was opened and the tablet was ingested by an individual.

CCC(C)O (stereo not shown) [2-butanol]
2-butanone, a metabolite of 2-butanol, detected in the individual's breath: significant quantity
